Test [1] has as its system IL-1 release from mononuclear cells. In words: Test 4: cytokine release from LPS-stimulated mononuclear cells, IL-1. In kind it is cell-based. The following applies: Homo sapiens; IL-1; 10 μM; read-out: Test 4 residual activity (IL-1 release), percent of control. The procedure: (§1) Test 4. Stimulation of the cytokine release
(§2) Isolation of mononuclear cells from human blood
(§3) 10 ml of human blood, stabilized with 1 ml of 3.8% sodium citrate solution, were diluted with 10 ml of PM16 (Serva, Heidelberg) and underlaid with 15 ml of Lymphoprep (Dr. Molter GmbH, Heidelberg). The samples were centrifuged, at room temperature for 40 minutes, at 400×g (1600 rpm, Minifuge 2, Heraeus, Osterode). The mononuclear cells are visible as a white ring at the Lymphoprep/plasma interface. This ring was carefully removed with a syringe, diluted with an equal volume of PM16, and centrifuged for 10 minutes at 400×g. The sediment was washed with approximately 10 ml of RPMI1640 (+300 mg/l L-glutamine, Gibco, Eggenstein) (Wallis, 1986). After the cells had been resuspended in approximately 1 ml of RPMI1640 (+300 mg/l L-glutamine+25 mM HEPES+100 μg/ml streptomycin+100 μg/ml penicillin), the cell density was determined using a Coulter Counter JT (Coulter Diagnostics) and adjusted to 5*10^6 /ml. Typically, the cells are composed of 90% lymphocytes and 10% monocytes.
(§4) 230 μl of mononuclear cells were incubated, at 37° C.; 5% CO2 for 20-22 hours (5 hours in the case of IL-6), with 10 μl of test substance (10 μM in DMSO/water, 1/10) and 10 μl of lipopolysaccharide (LPS; 500 μg dissolved in 1 ml of DMSO and diluted 1/10 with water prior to beginning the test; from Salmonella abortus equi, Sigma, Deisenhofen). The samples were cooled down to 0° C. in an ice bath and centrifuged in a Sigma centrifuge (2 minutes; 2000 rpm). Aliquots of the supernatant are measured with an ELISA (Biermann, Bad Nauheim). The abbreviation IL stands for interleukin and TNF for tumor necrosis factor alpha.
(§5) The values in the table show the concentration of the test substance which was employed in μM and, besides this, the residual activity measured in percent based on the control, which was set to be 100%. The interleukin is additionally indicated in test 4.

In test [2] the test system is PAF-induced asthma attack. As to the kind of experiment: Test 7: antiasthmatic effect, PAF-induced asthma attack. In kind it is in vivo. The following applies: Cavia porcellus; i.d., 15 minutes before PAF; guinea pig. An outline of the steps:
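Anesthetized guinea pigs given PAF through a jugular vein cannula; test compounds dosed i.v. through the same cannula 5 min before PAF, or intraduodenally via surgical cannula 15 min before. Bronchial width recorded by overflow pneumonogram before and after dosing; ED50 in mg/kg i.d. against the PAF-induced attack.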

Test [3] relates to IL-1α release from mononuclear cells. As to the kind of experiment: Test 4: cytokine release from LPS-stimulated mononuclear cells, IL-1α. To be noted: Homo sapiens, 10 μM, read-out: Test 4 residual activity (IL-1α release), percent of control. In kind it is cell-based. The protocol:
as §1, §2, §3
230 μl of mononuclear cells were incubated, at 37° C.; 5% CO2 for 20-22 hours (5 hours in the case of IL-6), with 10 μl of test substance ([…]) and 10 μl of lipopolysaccharide (LPS; 500 μg dissolved in 1 ml of DMSO and diluted 1/10 with water prior to beginning the test; from Salmonella abortus equi, Sigma, Deisenhofen). The samples were cooled down to 0° C. in an ice bath and centrifuged in a Sigma centrifuge (2 minutes; 2000 rpm). Aliquots of the supernatant are measured with an ELISA (Biermann, Bad Nauheim). The abbreviation IL stands for interleukin and TNF for tumor necrosis factor alpha.
as §5

The test system of a further test is adjuvant/arthritis model. As to the kind of experiment: Test 6: antiarthritic effect in the adjuvant/arthritis model. In kind it is in vivo, rat (Wistar-Lewis). The following applies: Rattus norvegicus, po, 408 h, 50 mg/kg orally, daily for 17 days; rat; read-out: Test 6 Paw volume (% inhibition).
For test [4], the system named is IL-1β release from mononuclear cells. As to the kind of experiment: Test 4: cytokine release from LPS-stimulated mononuclear cells, IL-1β. It is filed as cell-based. The following applies: Homo sapiens, 10 μM, read-out: Test 4 residual activity (IL-1β release), percent of control. The protocol:
as §1, §2, §3, §4, §5

Method for adjuvant/arthritis model: Male rats of a Wistar-Lewis strain (Mollegaard/Denmark) were used as experimental animals. The body weight is between 160 and 200 g. Subplantar injection of 0.1 ml of Freund's adjuvant (=6 mg of Mycobacterium butyricum suspension, Difco Lab./Detroit, Mich. USA, per ml of heavy white paraffin oil, Merck, Darmstadt) into the root of the tail resulted, on the 10th to 14th day of the experiment, in immunopathological processes and chronic inflammations, particularly in the form of arthritic and periarthritic symptoms, at other sites in the body (secondary lesions). The animals were fed ad libitum with the standard feed Altromin-R, from Altrogge, Lage, and provided with tap water. The animals were given 60 mg of codein per kg as an analgesic from the 14th day to the end of the experiment. The test substances were administered orally as a CMC suspension, in an injection volume of 1 ml/100 g of body weight, on each day (in all for 17 days), beginning on the day of the adjuvant administration. The volumes of each of the hind paws, and the body weight, were measured on the first and on the 18th day of the experiment. Diminution in the increase of paw volume, as compared with the untreated control group, served as the criterion of activity, with the two hind paws being averaged.

The ED50 is the dose at which the effect has come halfway, by size or by number of responders. Read a low ED50 as greater potency. Take `CC(C)(C)c1cc(C2=NOC(c3ccccn3)C2)cc(C(C)(C)C)c1O` (stereo not shown) [Example 9]: the activity at 10 µM in test [1] is 73%. This molecule had a median effective dose (ED50) in test [2] of around 50 mg/kg.
For `CC(O)c1cc(-c2cc(C(C)(C)C)c(O)c(C(C)(C)C)c2)no1` (stereo not shown) [Example 28], the activity at 10 µM in test [3] worked out at 93%. In the test on adjuvant/arthritis model, the inhibition in vivo at 50 mg/kg turned out to be 74%.
In the case of `CC(C)(C)c1cc(-c2cc(CNS(=O)(=O)C(F)(F)F)on2)cc(C(C)(C)C)c1O` [Example 49, N-(3-(4-Hydroxy-3,5-di-tert-butylphenyl)isoxazol-5-ylmethyl)trifluoromethanesulfonamide], the ED50 in test [2] is around 50 mg/kg.
As for `CC(C)(C)c1cc(C2CC(CCC(=O)O)=NO2)cc(C(C)(C)C)c1O` (stereo not shown) [Example 63, 5-(4-Hydroxy-3,5-di-tert-butylphenyl)-2-isoxazolin-3-ylpropionic acid], the activity at 10 µM in test [3] is 75%; in test [4] it was 77%.

For the origin of these results see patent publication US5814627A, “3, 5-disubstituted and 3, 4, 5-trisubstituted 2-isoxazolines and isoxazoles, process for their preparation and their use as pharmaceuticals” (Hoechst Aktienegesellschaft, priority 1994, dated 1998).
